According to patent publication US20220117945A1, “ISOXAZOLE CARBOXAMIDE COMPOUNDS AND USES THEREOF” (NOVARTIS AG, priority 2017, published 2022):

What was measured:
[1] = test system: Atoh1 expression in mouse cerebellar neural precursor cells; test: Atoh1 induction assay in mouse cerebellar neural precursor cells (NPCs), Atoh1-GFP reporter; format: cell-based; conditions: 10 doses 50 μM to 200 nM, 72 hours treatment, DMSO control = 1, more than 5 considered significant, read-out: fold difference (maximum fold difference of GFP average intensity in cell nuclei over the DMSO control)
Experimental: (§1) Compounds of the present disclosure were assessed for their ability to increase the Atoh1 expression in mouse cerebellar neural precursor cells. The ability of compounds of the present disclosure to induce new hair cell formation was assessed in ex vivo hair cell induction assay using 6-day-postnatal mouse cochlea explants with hair cell damage.
Atoh1 Induction Assay in Mouse Cerebellar Neural Precursor Cells (NPCs)
Atoh1 induction assay was conducted with in vitro cultured cerebellar neural precursor cells isolated from neonatal transgenic Atoh1-GFP mice. Atoh1 expression is mainly regulated by the enhancer, and the nuclear GFP was driven by the cloned enhancer sequence at 3′ of Atoh1 which had high conservation among mammalians. So Atoh1 induction could be reflected by GFP activation in cerebellar neural precursor cells (Helms et al., Development 2000; 127: 1185-1196; Lumpkin et al., Gene Expression Patterns 2003; 3: 389-395). Postnatal 3 days pups were dissected for cerebellum tissue isolation. The cerebellum tissue was cut into small pieces, and dissociated with 0.05% Trypsin for about 10 minutes at 37° C., and then filtered with a 70 uM cell strainer. The cells were cultured as neuropsheres for the first 2 days in ultra-low attachment dish/well-plate with DMEM/F12+1% N2 &2% B27 with 1% P/S, 20 ng/ml rhFGF2 and 20 ng/ml rhEGF (R&D Systems). Then the spheres were plated to the matrigel (1:30 diluted in DMEM/F12)-coated tissue culture dish for monolayer culture. After 4.5-5.5 days culture in vitro (DIV), cells were dissociated with 0.05% trypsin into single cells, and frozen after cell number calculation.
The cerebellar neural precursor cells (NPCs) were re-thawed from stock and cultured for another 2 days before used for Atoh1 induction assay. On the first day of assay, NPCs were seeded into matrigel-coated 384 well plates (Black view-plate, PE) at 2500 cells/well. After over-night culture, the NPCs were treated with representative compounds of the present disclosure with 1:2 serial dilutions for 10 doses, from 50 μM to 200 nM, with DMSO as negative control. After 72 hours treatment without medium change, the cells were fixed with 4% formalin for staining. Assay plates were stained with GFP antibody (Abcam, #13970, 1:1000) to amplify endogenous GFP signal and then read by Cellomics.

[2] = test system: 6-day-postnatal mouse cochlea explants with hair cell damage; test: Ex vivo hair cell induction assay using 6-day-postnatal mouse cochlea explants with hair cell damage; format: cell-based; conditions: P6 Atoh1-GFP mouse cochlea explants, neomycin-damaged; 3 to 10 μM compound for 8 days, then 4 days blank medium; mean ± SD; DMSO = 0%; more than 20% considered significant
Experimental: as §1
Ex Vivo Hair Cell Induction Assay Using 6-Day-Postnatal Mouse Cochlea Explants with Hair Cell Damage
P6, postnatal 6 days, Atoh1-GFP mice, the same mouse strain used for Atoh1 induction assay described before, were used in this assay. The otic capsule was exposed and the cochleae were micro-dissected. […] and in vitro cultured in serum free medium (culture medium: DMEM/F12+1% N2+2% B27+5 μg/ml ampicillin) at 37° C. under a standard gas atmosphere of humidified air/5% CO2. Inner ear hair cells were damaged by 1 mM Neomycin treatment for 1.25 h. After the neomycin treatment, explants were cultured in blank culture medium for 7 days before the treatment of selected compounds.
For compound administration, the cochlea explants were treated with 3 to 10 μM compound of the present disclosure, with DMSO as the negative control for 8 days with once compound/medium change. After 8 days treatment, the tested compound was removed. The explants were cultured in blank medium for additional 4 days. The cochlea explant cultures then were fixed with 4% w/v formalin and processed for Myo7a immunofluorescence (Myo7a is a specific marker for sensory hair cell) using the rabbit anti-Myo7a antibody (Protus Biosci #25-6790, 1:250 diluted in PBS containing 3% BSA). Rhodamine labeled Goat-anti-rabbit IgG (Molecular Prob. #R6394, 1:1000 diluted in PBS containing 3% BSA) was used as the secondary antibody to visualize the Myo7a positive cells. The images were collected and analyzed using the EVOS image system (Thermo-Fisher Scientific). […] The hair cell identity of the ectopically formed cells was confirmed by staining the cells with multiple hair cell markers.
The efficacy of hair cells induction in this assay is represented by the responsive length percentage of Atoh1 and Myo7a double positive cells in the damaged whole explants after compound treatment. The responsive length percentage was calculated according to the equation of ((the explant length with Atoh1 and Myo7a double positive cells/the full length of cochlea explant)*100%). Note the value of DMSO control is 0% due to total damage of hair cells, and any responsive length percentage more than 20% is considered as significant hair cell induction.

With CC1CN(CCCCCNC(=O)c2cc(-c3cccs3)on2)CC(C)N1 (centres unmarked) [Example 14, N-(5-(3,5-Dimethylpiperazin-1-yl)pentyl)-5-(thiophen-2-yl)isoxazole-3-carboxamide] the maximal fold induction [1] was 29.1 and the “Responsive length % (explant length with Atoh1 and Myo7a double positive cells / full length of cochlea explant)” value [2] was 45.3 ± 6.7%.
O=C(NCCCCCN1CC(CO)C1)c1cc(-c2cccs2)on1 [Example 55] was tested, and the maximal fold induction [1] was 29 and the “Responsive length % (explant length with Atoh1 and Myo7a double positive cells / full length of cochlea explant)” value [2] was 53.1 ± 6.2%.
O=C(NCCCCCN1CCN(CCO)CC1)c1cc(-c2cccs2)on1 [Example 54, N-(5-(4-(2-hydroxyethyl)piperazin-1-yl)pentyl)-5-(thiophen-2-yl)isoxazole-3-carboxamide] was tested, and the maximal fold induction [1] was 27.8 and the “Responsive length % (explant length with Atoh1 and Myo7a double positive cells / full length of cochlea explant)” value [2] was 35.6 ± 11.8%.
For N#CCC1CN(CCCCCNC(=O)c2cc(-c3ccc(F)cc3)on2)C1 [Example 66], the maximal fold induction [1] was 25.1 and the “Responsive length % (explant length with Atoh1 and Myo7a double positive cells / full length of cochlea explant)” value [2] was 61.5 ± 6.0%.
COC(=O)NC1CN(CCCCCNC(=O)c2cc(-c3cccs3)on2)C1 [Example 17, Methyl (1-(5-(5-(thiophen-2-yl)isoxazole-3-carboxamido)pentyl)azetidin-3-yl)carbamate] was tested, and the maximal fold induction [1] was 34.6 and the “Responsive length % (explant length with Atoh1 and Myo7a double positive cells / full length of cochlea explant)” value [2] was 52.9 ± 6.8%.
In the case of CC1CN(CCCCCNC(=O)c2cc(-c3cccs3)on2)CC(C)N1C (centres unmarked) [Example 15, 5-(Thiophen-2-yl)-N-(5-(3,4,5-trimethylpiperazin-1-yl)pentyl)isoxazole-3-carboxamide], the maximal fold induction [1] is reported as 15.3 and the “Responsive length % (explant length with Atoh1 and Myo7a double positive cells / full length of cochlea explant)” value [2] is reported as 50.1 ± 9.9%.
For O=C(NCCCCCN1CC2CCC(C1)N2)c1cc(-c2cccs2)on1 [Example 11, N-(5-(3,8-Diazabicyclo[3.2.1]octan-3-yl)pentyl)-5-(thiophen-2-yl)isoxazole-3-carboxamide], the maximal fold induction [1] was 12.4 and the “Responsive length % (explant length with Atoh1 and Myo7a double positive cells / full length of cochlea explant)” value [2] was 51.7 ± 8.1%.
O=C(NCCCCCN1CC2CCC(C1)O2)c1cc(-c2cccs2)on1 [Example 51, N-(5-(8-oxa-3-azabicyclo[3.2.1]octan-3-yl)pentyl)-5-(thiophen-2-yl)isoxazole-3-carboxamide] was tested, and the maximal fold induction [1] was 9.9 and the “Responsive length % (explant length with Atoh1 and Myo7a double positive cells / full length of cochlea explant)” value [2] was 48.6 ± 3.0%.
For N#CCC1CN(CCCCCNC(=O)c2cc(-c3cccs3)on2)C1 [Example 49], the maximal fold induction [1] was 37.1 and the “Responsive length % (explant length with Atoh1 and Myo7a double positive cells / full length of cochlea explant)” value [2] was 47.5 ± 9.2%.
C[C@@H]1CN(CCCCCNC(=O)c2cc(-c3cccs3)on2)C[C@H](C)O1 [Example 42] was tested, and the maximal fold induction [1] was 23.7 and the “Responsive length % (explant length with Atoh1 and Myo7a double positive cells / full length of cochlea explant)” value [2] was 28.8 ± 8.3%.
In the case of O=C(NCCCCCN1CC(O)C1)c1cc(-c2ccc(F)cc2)on1 [Example 67], the maximal fold induction [1] is reported as 18.9 and the “Responsive length % (explant length with Atoh1 and Myo7a double positive cells / full length of cochlea explant)” value [2] is reported as 58.2 ± 3.5%.
For CN1CCN(CCCCCNC(=O)c2cc(-c3ccc(F)cc3)on2)CC1 [Example 10, 5-(4-Fluorophenyl)-N-(5-(4-methylpiperazin-1-yl)pentyl)isoxazole-3-carboxamide], the maximal fold induction [1] was 17.6 and the “Responsive length % (explant length with Atoh1 and Myo7a double positive cells / full length of cochlea explant)” value [2] was 59.1 ± 9.1%.
In the case of O=C(NCCCCCN1CC[C@H](F)C1)c1cc(-c2cccs2)on1 [Example 45, (S)—N-(5-(3-fluoropyrrolidin-1-yl)pentyl)-5-(thiophen-2-yl)isoxazole-3-carboxamide], the maximal fold induction [1] is reported as 24 and the “Responsive length % (explant length with Atoh1 and Myo7a double positive cells / full length of cochlea explant)” value [2] is reported as 51.9 ± 14.9%.
N#CC1CCN(CCCCCNC(=O)c2cc(-c3cccs3)on2)CC1 [Example 56] was tested, and the maximal fold induction [1] was 36.9 and the “Responsive length % (explant length with Atoh1 and Myo7a double positive cells / full length of cochlea explant)” value [2] was 26.5 ± 9.4%.
For COC1CN(CCCCCNC(=O)c2cc(-c3cccs3)on2)C1 [Example 47], the maximal fold induction [1] was 27.8 and the “Responsive length % (explant length with Atoh1 and Myo7a double positive cells / full length of cochlea explant)” value [2] was 64.4 ± 17.2%.
With O=C(NCCCCCN1CC(F)C1)c1cc(-c2cccs2)on1 [Example 59] the maximal fold induction [1] was 29.1 and the “Responsive length % (explant length with Atoh1 and Myo7a double positive cells / full length of cochlea explant)” value [2] was 54.1 ± 5.8%.
